Common to all, as to test: growth of human tumour cells (NCI), 48 h
Assay [1] relates to OVCAR-4 ovarian.
The test system of assay [2] is SNB-75 CNS.
Assay [3] concerns HOP-62 NSCLC.
The subject of assay [4] is HL-60(TB) leukemia.
The test system of assay [5] is SK-OV-3 ovarian.
Assay [6] concerns U251 CNS.
For assay [7], the system named is M14 melanoma.
Assay [8] relates to TK-10 renal.
The test system of assay [9] is SF-268 CNS.
For assay [10], the system named is COLO 205 colon.

The results in this text go back to PubChem BioAssay (NCI).

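Cultured in 96-well plates, cells were exposed to test compound for 48 hours across five concentrations. GI50 marks 50% less growth. TGI denotes the concentration required for complete inhibition of growth.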

Take `[Cl-].[Rh+3].c1cnc2c(c1)ccc1cccnc12.c1cnc2c(c1)ccc1cccnc12.c1cnc2c(c1)ccc1cccnc12`: the TGI in assay [1], in [2], in assay [3], in assay [4], in [5] and in assay [6] was more than 100 µM in each case. Further, in assay [7], the TGI was 29 µM.
With `COc1ccc2c(c1)-c1nc(=S)n(CCCN(C)C)c3ccc([N+](=O)[O-])c(c13)N2`, the TGI came out at 2.52 µM in assay [1]; 22.8 µM in [2]; 2.46 µM in [3]; 1.64 µM in assay [4]; 19.4 µM in assay [5]; 17.7 µM in [6]. Besides, the TGI was determined as 22.1 µM in assay [7], 17.1 µM in assay [8], 21.7 µM in assay [9] and 17.6 µM in [10].
In the case of `OCCCNc1nc(=S)[nH]c2[nH]ncc12`, the GI50 in assay [1] was 53.7 µM; in assay [2] it was more than 100 µM; in [4], more than 100 µM; in [5] it was 48.7 µM; in assay [6], 40.1 µM; in [8], 33.6 µM. For the same compound, the GI50 in [9] is 32.7 µM; in [10] it was 29.3 µM. The TGI in [1], in assay [2], in [4], in assay [5], in [6] and in assay [8] was more than 100 µM throughout. Besides, the TGI was 92.2 µM in assay [9] and more than 100 µM in [10].
As for `O=S(=O)(SC1=NCCN1)c1ccc2ccccc2c1`, the TGI in assay [1] was more than 100 µM; in [2] it was 68 µM; in assay [3], 69.5 µM; in [4], 38.4 µM; in [5], 54.7 µM; in assay [6], 54.1 µM. Moreover, the TGI was 63.6 µM in [7], more than 100 µM in assay [8], 52.5 µM in assay [9] and 37.7 µM in assay [10].
Take `O=c1oc2ccccc2cc1-c1csc(Nc2ccc(F)cc2)n1`: the TGI was more than 36 µM in assay [1]; 4.57 µM in [2]; 8.22 µM in assay [3]; 35.3 µM in assay [4]; 15.6 µM in assay [5]; 9.55 µM in assay [6]. Further, the TGI in assay [7] amounted to 13.6 µM; in [8] it was 8.21 µM; in [9], 9.09 µM; in assay [10], 14.9 µM.
As for `O=C(O)c1ccccc1/C=N/NC1=NCCN1`, the TGI in assay [1], in assay [2], in assay [3], in [4], in assay [5] and in assay [6] was more than 100 µM throughout. For the same compound, the TGI in assay [7], in assay [8], in assay [9] and in [10] was more than 100 µM each time.
On to `CN1CCN(c2ccc3[nH]c(-c4cc(O)c5c(nc(CO)n5C)c4O)nc3n2)CC1`, for which the TGI is more than 100 µM in assay [1]; more than 100 µM in [2]; more than 100 µM in assay [3]; 47.2 µM in [4]; more than 100 µM in assay [5]; 44.2 µM in assay [6]. The figures for the TGI in assay [7], in [9] and in assay [10] were more than 100 µM, more than 100 µM and 43.3 µM, respectively.
In the case of `CCOC(=O)N(NC(=O)NC(C)C)c1ccccc1`, the TGI in assay [1], in [2], in assay [3], in assay [4], in assay [5] and in assay [6] was more than 100 µM each time. For the same compound, the TGI in [7], in assay [8] and in [10] was more than 100 µM in each case.
Consider `COC(=O)C1=C(O)C(C(=O)OC)[C@]2(O)[C@H](C(=O)OC)[C@H]1C[C@@H](c1ccc(OC)c(OC)c1)[C@H]2C(=O)OC` (stereo not given in full), for which the TGI in assay [1] was more than 100 µM; in assay [2], 46 µM; in assay [3], more than 100 µM; in assay [4], 62.9 µM; in assay [5], 68.2 µM; in [6], 25.3 µM. Moreover, the TGI is more than 100 µM in [7], more than 100 µM in assay [8] and 66.3 µM in [10].
Take `N#Cc1c(=O)n(-c2ccccc2)c(O)c2c(N)n[nH]c12`: the TGI in assay [1], in assay [2], in assay [4], in assay [5], in [6] and in [7] was more than 100 µM throughout. For the same compound, the TGI in [8], in assay [9] and in assay [10] was more than 100 µM throughout.
With `Cc1cc(C)c2c(O)c(S(=O)(=O)c3ccc(Cl)cc3)c(=O)oc2c1`, the TGI in [1], in assay [2], in assay [3], in assay [4], in [5] and in [6] was more than 100 µM in each case. In addition, the TGI in [7], in assay [9] and in assay [10] was more than 100 µM each time.
For the compound `O=c1c2ccccc2[nH]c2c(Cl)cc(Cl)c(NC3CCCCC3)c12`, the TGI in assay [1] is more than 100 µM; in assay [2], 83.6 µM; in assay [3], 60.8 µM; in [4] it was 43.9 µM; in assay [5], more than 100 µM; in [6], 36.9 µM. For the same compound, the TGI in assay [7] was 47.7 µM; in assay [8], 61.3 µM; in assay [10], more than 100 µM.
`Oc1c2cc(Cl)cc1COCc1cc(Cl)cc(c1O)COCc1cc(Cl)cc(c1O)COC2`: the TGI in [1] was more than 100 µM; in assay [2], 63.4 µM; in assay [3], more than 100 µM; in assay [4] it was 8.43 µM; in assay [5], more than 100 µM; in assay [6], more than 100 µM. Also, the TGI was 64.7 µM in assay [7], more than 100 µM in [8] and more than 100 µM in assay [10].
With `Nc1cccnc1NCC1(CO)CCCC1`, the TGI in assay [1], in [2], in assay [3], in assay [4], in assay [5] and in assay [6] was more than 100 µM each time. The TGI in [8], in [9] and in assay [10] was more than 100 µM in each case.
